From patent US8278304B2, “Substituted 4-hydroxypyrimidine-5-carboxamides” (Merck Sharp & Dohme Corp., priority 2008, dated 2012)
Counter-ions that a name gives are not always drawn.

Target: T1, PHD2 (Homo sapiens, UniProt Q9GZT9)
T1 construct: FLAG-tagged full length PHD2 expressed in and purified from baculovirus-infected Sf9 cells; FLAG; made in house; host or cells: baculovirus-infected Sf9 cells
Experiment: PHD2 / HIF-1α peptide hydroxylation assay, time resolved fluorescence (VHL complex detection)
Assay type: biochemical
Details: FLAG-tagged full length PHD2; 0.2 μM 2-oxoglutarate, 0.5 μM HIF-1α peptide; read-out: PHD2 Activity (PHD2 binding activity expressed as IC50 (nM))
Protocol: To each well of a 96-well plate was added 1 μL of test compound in DMSO and 20 μl of assay buffer (50 mM Tris pH 7.4/0.01% Tween-20/0.1 mg/ml bovine serum albumin/10 μM ferrous sulfate/1 mM sodium ascorbate/20 μg/ml catalase) containing 0.15 μg/ml FLAG-tagged full length PHD2 expressed in and purified from baculovirus-infected Sf9 cells. After a 30 min preincubation at room temperature, the enzymatic reactions were initiated by the addition of 4 μL of substrates (final concentrations of 0.2 μM 2-oxoglutarate and 0.5 μM HIF-1α peptide biotinyl-[…]).

T1 sequence (Q9GZT9 whole entry): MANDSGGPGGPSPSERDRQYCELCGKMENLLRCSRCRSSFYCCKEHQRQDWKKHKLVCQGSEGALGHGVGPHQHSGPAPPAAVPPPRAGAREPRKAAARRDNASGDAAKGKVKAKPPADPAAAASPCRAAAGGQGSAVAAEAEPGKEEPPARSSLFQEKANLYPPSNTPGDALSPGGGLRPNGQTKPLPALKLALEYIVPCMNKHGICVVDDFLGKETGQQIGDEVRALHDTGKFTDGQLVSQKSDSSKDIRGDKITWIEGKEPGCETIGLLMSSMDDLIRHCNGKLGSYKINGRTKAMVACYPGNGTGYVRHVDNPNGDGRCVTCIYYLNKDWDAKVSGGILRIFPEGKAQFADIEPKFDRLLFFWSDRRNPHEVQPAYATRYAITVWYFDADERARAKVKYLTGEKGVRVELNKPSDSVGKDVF

| Compound | IC50 [nM] |
| --- | --- |
| N#Cc1ccc(CNC(=O)c2cnc(-n3cccn3)nc2O)cn1 [Example 110, N-[(6-cyanopyridin-3-yl)methyl]-4-hydroxy-2-(1H-pyrazol-1-yl)pyrimidine-5-carboxamide] | 10 to 100 |
| O=C(N[C@@H](C(=O)O)c1ccccc1)c1cnc(-n2cccn2)nc1O [Example 124, (2R)-({[4-hydroxy-2-(1H-pyrazol-1-yl)pyrimidin-5-yl]carbonyl}amino)(phenyl)ethanoic acid] | ≤ 10 |
| Cc1nc(-c2ncc(C(=O)NCc3ccc(C(F)(F)F)cc3)c(O)n2)cs1 [Example 29, 4-Hydroxy-2-(2-methyl-1,3-thiazol-4-yl)-N-[4-(trifluoromethyl)benzyl]pyrimidine-5-carboxamide] | 10 to 100 |
| O=C(NCc1ccc(Br)cc1)c1cnc(-n2cccn2)nc1O [Example 9, N-(4-bromobenzyl)-4-hydroxy-2-(1H-pyrazol-1-yl)pyrimidine-5-carboxamide] | ≤ 10 |
| O=C(NC1(c2ccccc2)CC1)c1cnc(-n2cccn2)nc1O [Example 87, 4-Hydroxy-N-(1-phenylcyclopropyl)-2-(1H-pyrazol-1-yl)pyrimidine-5-carboxamide] | ≤ 10 |
| O=C(NCc1ccc(Oc2ccccc2)cc1)c1cnc(-n2cccn2)nc1O [Example 93, 4-hydroxy-N-(4-phenoxybenzyl)-2-(1H-pyrazol-1-yl)pyrimidine-5-carboxamide] | ≤ 10 |
| O=C(N[C@@H]1CONC1=O)c1cnc(-n2cccn2)nc1O [Example 83, 4-Hydroxy-N-[(4R)-3-oxoisoxazolidin-4-yl]-2-(1H-pyrazol-1-yl)pyrimidine-5-carboxamide] | 100 to 1000 |
| CC(C)(C)C1CCC(NC(=O)c2cnc(-n3cccn3)nc2O)CC1 (stereo not shown) [Example 82, N-(4-tert-butylcyclohexyl)-4-hydroxy-2-(1H-pyrazol-1-yl)pyrimidine-5-carboxamide] | 10 to 100 |
| O=C(NCc1ccc(Oc2ccc(F)cc2)cc1)c1cnc(-n2cccn2)nc1O [Example 99, N-[4-(4-fluorophenoxy)benzyl]-4-hydroxy-2-(1H-pyrazol-1-yl)pyrimidine-5-carboxamide] | ≤ 10 |
| O=C(NCc1ccc(Cl)cc1Cl)c1cnc(-n2cccn2)nc1O [Example 51, N-(2,4-dichlorobenzyl)-4-hydroxy-2-(1H-pyrazol-1-yl)pyrimidine-5-carboxamide] | ≤ 10 |
| Cc1ccccc1Oc1ccc(CNC(=O)c2cnc(-n3cccn3)nc2O)cc1 [Example 100, 4-hydroxy-N-[4-(2-methylphenoxy)benzyl]-2-(1H-pyrazol-1-yl)pyrimidine-5-carboxamide] | ≤ 10 |
| C[C@H](NC(=O)c1cnc(-n2cccn2)nc1O)C1CCCCC1 [Example 85, N-[(1S)-1-cyclohexylethyl]-4-hydroxy-2-(1H-pyrazol-1-yl)pyrimidine-5-carboxamide] | 10 to 100 |
| CCN(NC(=O)c1cnc(-n2cccn2)nc1O)c1ccccc1 [Example 76, N′-Ethyl-4-hydroxy-N′-phenyl-2-(1H-pyrazol-1-yl)pyrimidine-5-carbohydrazide trifluoroacetate (salt)] | 10 to 100 |
| O=C(NCc1ccc(Cl)nc1)c1cnc(-n2cccn2)nc1O [Example 59, N-[(6-chloropyridin-3-yl)methyl]-4-hydroxy-2-(1H-pyrazol-1-yl)pyrimidine-5-carboxamide] | 10 to 100 |
| Cc1ccc(CNC(=O)c2cnc(-n3cccn3)nc2O)cc1 [Example 77, 4-Hydroxy-N-(4-methylbenzyl)-2-(1H-pyrazol-1-yl)pyrimidine-5-carboxamide] | 10 to 100 |

Other lines, results leading:

| IC50 [nM] | Compound |
| --- | --- |
| ≤ 10 | COc1ccc(C(NC(=O)c2cnc(-n3cccn3)nc2O)c2cnccn2)cc1 (stereo not shown) [Example 166, 4-hydroxy-N-[(4-methoxyphenyl)(pyrazin-2-yl)methyl]-2-(1H-pyrazol-1-yl)pyrimidine-5-carboxamide] |
| 10 to 100 | CC(C)(NC(=O)c1cnc(-c2cc(Br)ccn2)nc1O)c1ccccc1 [Example 1, 2-(4-Bromopyridin-2-yl)-4-hydroxy-N-(1-methyl-1-phenylethyl)pyrimidine-5-carboxamide] |
| ≤ 10 | COc1ccc(C(NC(=O)c2cnc(-n3cccn3)nc2O)c2ccc(SC)cc2)cc1 (stereo not shown) [Example 168, 4-hydroxy-N-{(4-methoxyphenyl)[4-(methylsulfanyl)phenyl]methyl}-2-(1H-pyrazol-1-yl)pyrimidine-5-carboxamide] |
| ≤ 10 | COc1ccc(C(NC(=O)c2cnc(-c3cccnn3)nc2O)c2ccc(C#N)cc2)c(OC)c1 (single isomer, unassigned) [Example 155, N-[(4-cyanophenyl)(2,4-dimethoxyphenyl)methyl]-4-hydroxy-2-(pyridazin-3-yl)pyrimidine-5-carboxamide] |
| ≤ 10 | COc1ccc(C(NC(=O)c2cnc(-c3cccnn3)nc2O)c2ccc(OC)nc2)cc1 (stereo not shown) [Example 170, 4-hydroxy-N-[(4-methoxyphenyl)(6-methoxypyridin-3-yl)methyl]-2-(pyridazin-3-yl)pyrimidine-5-carboxamide] |
| ≤ 10 | CC(NC(=O)c1cnc(-n2cccn2)nc1O)c1ccncc1 (stereo not shown) [Example 86, 4-hydroxy-2-(1H-pyrazol-1-yl)-N-(1-pyridin-4-ylethyl)pyrimidine-5-carboxamide trifluoroacetate (salt)] |
| ≤ 10 | COc1ccc(C(NC(=O)c2cnc(-c3cccnn3)nc2O)c2ccc(SC)cc2)cc1 (stereo not shown) [Example 178, 4-hydroxy-N-{(4-methoxyphenyl)[4-(methylsulfanyl)phenyl]methyl}-2-(pyridazin-3-yl)pyrimidine-5-carboxamide] |
| 1000 to 10000 | O=C(NCc1ccc(F)cc1)c1cnc(-c2ccc(C(F)(F)F)cn2)nc1O [Example 11, N-(4-fluorobenzyl)-4-hydroxy-2-[5-(trifluoromethyl)pyridin-2-yl]pyrimidine-5-carboxamide] |
| ≤ 10 | COCc1ccc(C(NC(=O)c2cnc(-c3cccnn3)nc2O)c2ccc(COC)cc2)cc1 [Example 184, N-{bis[4-(methoxymethyl)phenyl]methyl}-4-hydroxy-2-pyridazin-3-ylpyrimidine-5-carboxamide] |
| ≤ 10 | COc1ccc(C(NC(=O)c2cnc(-c3cccnn3)nc2O)c2nc(C)cs2)cc1 (single isomer, unassigned) [Example 145, 4-hydroxy-N-[(4-methoxyphenyl)(4-methyl-1,3-thiazol-2-yl)methyl]-2-(pyridazin-3-yl)pyrimidine-5-carboxamide] |
| ≤ 10 | O=C(NCc1ccc(-c2ccccc2)nc1)c1cnc(-n2cccn2)nc1O [Example 105, 4-Hydroxy-N-[(6-phenylpyridin-3-yl)methyl]-2-(1H-pyrazol-1-yl)pyrimidine-5-carboxamide] |
| ≤ 10 | COc1ccc(C(NC(=O)c2cnc(-c3cccnn3)nc2O)c2ccc(OC)nc2)cc1 (single isomer, unassigned) [Example 191] |
| ≤ 10 | COc1ccc(C(NC(=O)c2cnc(-n3cccn3)nc2O)c2ccc(OC)nc2)cc1 (stereo not shown) [Example 167, 4-hydroxy-N-[(4-methoxyphenyl)(6-methoxypyridin-3-yl)methyl]-2-(1H-pyrazol-1-yl)pyrimidine-5-carboxamide trifluoroacetate (salt)] |
| ≤ 10 | COc1ccc(C(NC(=O)c2cnc(-c3cccnn3)nc2O)c2ccc(OC)nc2)cn1 [Example 192, N-[bis(6-methoxypyridin-3-yl)methyl]-4-hydroxy-2-(pyridazin-3-yl)pyrimidine-5-carboxamide] |
| 100 to 1000 | Cc1nc(-c2ncc(C(=O)NCCc3ccc(F)cc3)c(O)n2)cs1 [Example 32, N-[2-(4-fluorophenyl)ethyl]-4-hydroxy-2-(2-methyl-1,3-thiazol-4-yl)pyrimidine-5-carboxamide] |
| ≤ 10 | COc1ccc(C(NC(=O)c2cnc(-c3cccnn3)nc2O)c2nc(C)cs2)cc1 (single isomer, unassigned) [Example 144, 4-hydroxy-N-[(4-methoxyphenyl)(4-methyl-1,3-thiazol-2-yl)methyl]-2-(pyridazin-3-yl)pyrimidine-5-carboxamide] |
| ≤ 10 | COc1ccc(C(NC(=O)c2cnc(-c3cccnn3)nc2O)c2ccc(C)nc2)cc1 (stereo not shown) [Example 114, 4-Hydroxy-N-[(4-methoxyphenyl)(6-methylpyridin-3-yl)methyl]-2-pyridazin-3-ylpyrimidine-5-carboxamide] |
| ≤ 10 | O=C(NC1(c2ccccc2)CCCCC1)c1cnc(-c2cccnn2)nc1O [Example 27, 4-hydroxy-N-(1-phenylcyclohexyl)-2-pyridazin-3-ylpyrimidine-5-carboxamide] |
| ≤ 10 | C[C@H](NC(=O)c1cnc(-c2cccnn2)nc1O)c1ccc2c(c1)OCCO2 [Example 140, N-[(1S)-1-(2,3-dihydro-1,4-benzodioxin-6-yl)ethyl]-4-hydroxy-2-(pyridazin-3-yl)pyrimidine-5-carboxamide] |
| 100 to 1000 | Cc1nc(-c2ncc(C(=O)Nc3ccc(F)cc3Cl)c(O)n2)cs1 [Example 38, N-(2-chloro-4-fluorophenyl)-4-hydroxy-2-(2-methyl-1,3-thiazol-4-yl)pyrimidine-5-carboxamide] |
| 10 to 100 | CC[C@@H](NC(=O)c1cnc(-c2csc(C)n2)nc1O)c1ccccc1 [Example 36, 4-Hydroxy-2-(2-methyl-1,3-thiazol-4-yl)-N-[(1R)-1-phenylpropyl]pyrimidine-5-carboxamide] |
| ≤ 10 | C[C@H](NC(=O)c1cnc(-c2cccnn2)nc1O)c1ccc(-c2ccc(F)nc2)cc1 [Example 186, N-{(1S)-1-[4-(6-fluoropyridin-3-yl)phenyl]ethyl}-4-hydroxy-2-pyridazin-3-ylpyrimidine-5-carboxamide trifluoroacetate (salt)] |
